Where a name gives a salt, the structure may show the parent alone.
Key:
CDC2L6/CycC (CDK19) = target: T1, CDC2L6/CycC (CDK19) (Homo sapiens, UniProt Q9BWU1); test: CDK19 inhibitory activity (Kinase Tracer-236 / Eu-anti-GST fluorescence assay); assay type: binding; design: Percent inhibition of CDK19 activity (%): concentration or dose not given beside the values; details: test compound concentration given as '1 1.1.1\4' [sic]
T1 construct: purchased Carna Biosciences Inc
Outline: (§1)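 Tracer-displacement TR-FRET binding assay: compound with kinase, Eu-cryptate anti-GST antibody and 60 nM Kinase Tracer-236 (pre-dilution level), 1 h at room temperature; ex 320 nm, em 615/665 nm. Percent inhibition is relative to no-compound control and a 10 μM control-compound blank.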

CDK8/CycC = target: T2, CDK8/CycC (Homo sapiens, UniProt P49336); test: CDK8 inhibitory activity (Kinase Tracer-236 / Eu-anti-GST fluorescence assay); assay type: binding; design: Percent inhibition of CDK8 activity (%): concentration or dose not given beside the values; details: test compound concentration given as '1 1.1.1\4' [sic]
T2 construct: purchased Carna Biosciences
T2 sequence (P49336 whole entry): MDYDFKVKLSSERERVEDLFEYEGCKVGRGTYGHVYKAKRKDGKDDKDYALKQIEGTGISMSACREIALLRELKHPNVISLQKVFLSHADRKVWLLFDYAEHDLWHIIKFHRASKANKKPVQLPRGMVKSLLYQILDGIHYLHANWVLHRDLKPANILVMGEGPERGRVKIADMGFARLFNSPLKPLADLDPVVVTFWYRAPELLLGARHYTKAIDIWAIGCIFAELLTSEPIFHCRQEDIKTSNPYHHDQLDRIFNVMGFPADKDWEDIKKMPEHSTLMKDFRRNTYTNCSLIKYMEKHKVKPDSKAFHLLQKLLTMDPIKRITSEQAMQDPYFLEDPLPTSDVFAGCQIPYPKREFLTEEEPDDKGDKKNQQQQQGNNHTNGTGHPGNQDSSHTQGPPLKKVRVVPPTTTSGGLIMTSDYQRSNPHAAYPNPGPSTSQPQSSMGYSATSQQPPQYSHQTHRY
T2 sequence (P24863 whole entry partner): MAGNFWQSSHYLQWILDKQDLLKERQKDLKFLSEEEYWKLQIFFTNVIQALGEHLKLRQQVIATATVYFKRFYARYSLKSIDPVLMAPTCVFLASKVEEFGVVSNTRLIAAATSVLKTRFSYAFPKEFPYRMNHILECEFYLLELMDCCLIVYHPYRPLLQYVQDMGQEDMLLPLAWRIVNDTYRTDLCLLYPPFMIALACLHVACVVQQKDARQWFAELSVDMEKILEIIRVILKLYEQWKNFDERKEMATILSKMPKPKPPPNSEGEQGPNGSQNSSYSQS
Outline: as §1

[1] = test system: human multiple myeloma RPMI8226 cells; test: Inhibitory activity against human multiple myeloma RPMI8226 cell growth (CellTiter-Glo); assay type: cell-based; details: Homo sapiens, RPMI-8226, 192 h, 1 μM test compound, cultured for 8 days; read-out: Percent inhibition of RPMI8226 cell growth (%)
Outline: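 RPMI8226 cells (300/well) cultured 1 day at 37 °C, 5% CO2, then given compound at 1 μM for 8 days. ATP luminescence (CellTiter-Glo) read; percent inhibition relative to 0.1% DMSO wells.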

T1 sequence (Q9BWU1 whole entry): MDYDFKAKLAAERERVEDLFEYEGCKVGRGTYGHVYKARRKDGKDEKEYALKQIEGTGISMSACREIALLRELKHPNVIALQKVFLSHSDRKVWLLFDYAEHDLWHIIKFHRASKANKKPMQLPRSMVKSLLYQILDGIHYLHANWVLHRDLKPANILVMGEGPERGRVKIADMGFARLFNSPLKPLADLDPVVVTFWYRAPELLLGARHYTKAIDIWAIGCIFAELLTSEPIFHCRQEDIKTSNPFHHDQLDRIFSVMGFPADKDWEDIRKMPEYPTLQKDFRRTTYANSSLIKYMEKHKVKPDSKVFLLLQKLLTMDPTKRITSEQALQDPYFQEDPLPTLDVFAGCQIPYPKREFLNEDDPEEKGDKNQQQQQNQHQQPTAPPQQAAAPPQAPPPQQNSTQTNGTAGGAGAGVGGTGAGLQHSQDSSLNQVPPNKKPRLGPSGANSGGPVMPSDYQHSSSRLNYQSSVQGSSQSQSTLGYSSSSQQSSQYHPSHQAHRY
T1 sequence (P24863 whole entry partner): as the sequence (P24863 whole entry partner) above

Structure (SMILES)	Percent inhibition of CDK19 activity (%) (CDC2L6/CycC (CDK19))	Percent inhibition of CDK8 activity (%) (CDK8/CycC)	inhibition at 1 µM [1] [%]
N#Cc1ccc(Oc2sc(C(N)=O)c3c2-c2sncc2CC3)cn1 [Example 11, 8-((6-Cyanopyridin-3-yl)oxy)-4,5-dihydrothieno[3,4-g][1,2]benzothiazole-6-carboxamide]	99	96	71
CCOCCNC(=O)c1ccc(Oc2sc(C(N)=O)c3c2-c2sncc2CC3)cn1 [Example 117, 8-((6-((2-Ethoxyethyl)carbamoyl)pyridin-3-yl)oxy)-4,5-dihydrothieno [3,4-g][1,2]benzothiazole-6-carboxamide]	99	110	64
Cc1ncccc1Oc1sc(C(N)=O)c2c1-c1sncc1CC2 [Example 7, 8-((2-Methylpyridin-3-yl)oxy)-4,5-dihydrothieno[3,4-g][1,2]benzothiazole-6-carboxamide]	101	100	69
CC(=O)Nc1ccc(Oc2sc(C(N)=O)c3c2-c2sncc2CC3)c(C)n1 [Example 128, 8-((6-Acetamido-2-methylpyridin-3-yl)oxy)-4,5-dihydrothieno[3,4-g][1,2] benzothiazole-6-carboxamide]	102	98	70
NC(=O)c1sc(Oc2cccnc2)c2c1CCc1cnsc1-2 [Example 132, 8-(Pyridin-3-yloxy)-4,5-dihydrothieno [3,4-g][1,2]benzothiazole-6-carboxamide]	97	102	61
NC(=O)c1sc(Oc2ccc(NC(=O)C3(O)CC3)nc2)c2c1CCc1cnsc1-2 [Example 21, 8-((6-(((1-Hydroxycyclopropyl)carbonyl)amino)pyridin-3-yl)oxy)-4,5-dihydrothieno[3,4-g][1,2]benzothiazole-6-carboxamide]	100	106	70
NC(=O)c1sc(Oc2ccc(C(=O)N3CC[C@@H](O)C3)nc2)c2c1CCc1cnsc1-2 [Example 109, 8-((6-(((3R)-3-Hydroxypyrrolidin-1-yl)carbonyl)pyridin-3-yl)oxy)-4,5-dihydrothieno[3,4-g][1,2]benzothiazole-6-carboxamide]	98	105	63
CC(=O)Nc1ccc(Oc2sc(C(N)=O)c3c2-c2sncc2CC3)cn1 [Example 94, 8-((6-Acetamidopyridin-3-yl)oxy)-4,5-dihydrothieno[3,4-g][1,2]benzothiazole-6-carboxamide]	97	90	63
CC(=O)c1sc(Oc2cccnc2C)c2c1CCc1cnsc1-2 [Example 39, 1-(8-((2-Methylpyridin-3-yl)oxy)-4,5-dihydrothieno[3,4-g][1,2]benzothiazol-6-yl)ethanone]	95	97	60
NC(=O)c1sc(Oc2ccc(C(F)(F)F)cc2)c2c1CCc1cnsc1-2 [Example 90]	102	102	55
NC(=O)c1sc(Oc2ccc(C(=O)N3CCC3)nc2)c2c1CCc1cnsc1-2 [Example 104]	102	101	66
CN(C(=O)C1CC1)c1ccc(Oc2sc(C(N)=O)c3c2-c2sncc2CC3)cn1 [Example 108, 8-((6-((Cyclopropylcarbonyl)(methyl)amimo)pyridin-3-yl)oxy)-4,5-dihydrothieno[3,4-g][1,2]benzothiazole-6-carboxamide]	99	101	63
Cc1ncccc1Oc1sc(C(=O)NOCc2ccccc2)c2c1-c1sncc1CC2 [Example 58, N-(Benzyloxy)-8-((2-methylpyridin-3-yl)oxy)-4,5-dihydrothieno[3,4-g][1,2] benzothiazole-6-carboxamide]	101	100	49
CNc1ccc(Oc2sc(C(N)=O)c3c2-c2sncc2CC3)c(C)n1 [Example 27, 8-((2-Methyl-6-(methylamino)pyridin-3-yl)oxy)-4,5-dihydrothieno[3,4-g][1,2]benzothiazole-6-carboxamide monohydrochloride]	102	102	81
NC(=O)c1sc(Oc2ccc(C(=O)N3CCOCC3)nc2)c2c1CCc1cnsc1-2 [Example 19, 8-((6-(Morpholin-4-ylcarbonyl)pyridin-3-yl)oxy)-4,5-dihydrothieno[3,4-g][1,2]benzothiazole-6-carboxamide]	93	98	53
CC(C)(O)CNC(=O)c1ccc(Oc2sc(C(N)=O)c3c2-c2sncc2CC3)cn1 [Example 114, 8-((6-((2-Hydroxy-2-methylpropyl)carbamoyl)pyridin-3-yl)oxy)-4,5-dihydrothieno[3,4-g][1,2]benzothiazole-6-carboxamide]	100	108	65
NC(=O)c1sc(Oc2ccc(Cl)nc2)c2c1CCc1cnsc1-2 [Example 10, 8-((6-Chloropyridin-3-yl)oxy)-4,5-dihydrothieno[3,4-g][1,2]benzothiazole-6-carboxamide]	101	96	60
N#Cc1cncc(Oc2sc(C(N)=O)c3c2-c2sncc2CC3)c1 [Example 103, 8-((5-Cyanopyridin-3-yl)oxy)-4,5-dihydrothieno[3,4-g][1,2]benzothiazole-6-carboxamide]	95	103	52
COCC(=O)Nc1ccc(Oc2sc(C(N)=O)c3c2-c2sncc2CC3)cn1 [Example 97, 8-((6-((Methoxyacetyl)amino)pyridin-3-yl)oxy)-4,5-dihydrothieno[3,4-g][1,2] benzothiazole-6-carboxamide]	99	103	55
NC(=O)c1sc(Oc2ccc(C(=O)N3CC[C@H](O)C3)nc2)c2c1CCc1cnsc1-2 [Example 110, 8-((6-(((3S)-3-Hydroxypyrrolidin-1-yl)carbonyl)pyridin-3-yl)oxy)-4,5-dihydrothieno[3,4-g][1,2]benzothiazole-6-carboxamide]	98	103	63
NC(=O)c1sc(Oc2ccc(C(=O)N3CCCCC3)nc2)c2c1CCc1cnsc1-2 [Example 106, 8-((6-(Piperidin-1-ylcarbonyl)pyridin-3-yl)oxy)-4,5-dihydrothieno[3,4-g][1,2] benzothiazole-6-carboxamide]	95	97	58
Cc1ncccc1Oc1sc(C(N)=O)c2c1-c1snnc1CC2 [Example 43, 8-((2-Methylpyridin-3-yl)oxy)-4,5-dihydrothieno[3,4-g][1,2,3]benzothiadiazole-6-carboxamide]	93	103	49
CN(C)C(=O)c1ccc(Oc2sc(C(N)=O)c3c2-c2sncc2CC3)cn1 [Example 91]	95	90	58
COCC(=O)N(C)c1ccc(Oc2sc(C(N)=O)c3c2-c2sncc2CC3)cn1 [Example 125, 8-((6-((Methoxyacetyl)(methyl)amino)pyridin-3-yl)oxy)-4,5-dihydrothieno [3,4-g][1,2]benzothiazole-6-carboxamide]	101	102	66
